# Experimental data as given in publication PMC10490123, “Synthesis and In Vitro Anticancer Activity of Novel 4-Aryl-3-(4-methoxyphenyl)-1-phenyl-1H-pyrazolo[3,4-b]pyridines Arrest Cell Cycle and Induce Cell Apoptosis by Inhibiting CDK2 and/or CDK9” (Molecules, 2023).
# Entries after “also recorded” stand apart in the source; their conditions may differ.
# Experiments:
# Hela cells [1] = test: Cell cycle analysis (PI flow cytometry), Hela; format: cell-based
# Procedure: (§1) Cell cycle arrest of cervical cancer cells Hela, breast cancer cells MCF7, and colon cancer cells HCT-116 were assessed for compounds 9a and 14g at their IC50.
# CDK9 = target: T1, CDK9 (Homo sapiens, UniProt P50750); test: In vitro CDK9 enzyme inhibition assay (BPS Bioscience kit, chemiluminescence); format: biochemical
# T1 construct: purchased BPS Bioscience
# Procedure: (§2) The CDK in vitro inhibitory activity of 9a–h and 14a–h toward CDK2 and CDK9 was performed using CDK Assay Kit (BPS Bioscience, USA) at different dilutions of 30, 10, 3, 1, 0.3, 0.1, 0.03, and 0.01 µM, measuring the chemiluminescence using BioTek™ Synergy2 Microplate Reader (BioTek, Santa Clara, CA, USA).
# [2] = MTT cytotoxicity on normal cell line WI-38; format: cell-based; conditions: human, WI-38 normal cells, MTT assay, mean ± SD of three experiments, read-out: In Vitro Cytotoxicity on WI-38 (IC50)
# CDK2 = target: T2, CDK2 (Homo sapiens, UniProt P24941); test: In vitro CDK2 enzyme inhibition assay (BPS Bioscience kit, chemiluminescence); format: biochemical
# T2 construct: purchased BPS Bioscience
# Procedure: as §2
# Hela cancer cell line = test: MTT cytotoxicity assay, cervical cancer Hela; format: cell-based; conditions: Homo sapiens, mean ± SD of three experiments
# Procedure: (§3) The cytotoxicity of compounds 9a–h and 14a–h against three cell lines, namely, cervical cancer Hela, breast cancer MCF7, and colon HCT-116, compared with doxorubicin as a reference compound was performed using MTT assay. The cytotoxic concentration (IC50 in µM) is illustrated in Table 1.
# (§4) Standard MTT colorimetric assay was applied to test the IC50 of compounds 9a–h and 14a–h against three cell lines, namely, cervical cancer Hela, breast cancer MCF7, and colon HCT-116, compared with doxorubicin as a reference compound with the typical reported methodology of MTT colorimetric assay.
# MCF7 cancer cell line = test: MTT cytotoxicity assay, breast cancer MCF7; format: cell-based; conditions: Homo sapiens, mean ± SD of three experiments
# Procedure: as §3, §4
# Hela cells [3] = test: Annexin V/PI apoptosis assay, Hela; format: cell-based; conditions: IC50 concentration, 24 h
# Procedure: An apoptotic assay using Annexin V/PI analysis for compounds 9a and 14g is evaluated. Compound 9a induced a significant level of early and late apoptosis (total = 42.19) in the Hela cell line when compared with the control cells (Table 3, Figure 5 and Figure 6).
# HCT-116 cancer cell line = test: MTT cytotoxicity assay, colon HCT-116; format: cell-based; conditions: Homo sapiens, mean ± SD of three experiments, read-out: IC50 HCT116
# Procedure: as §3, §4
# MCF7 cells [4] = test: Cell cycle analysis (PI flow cytometry), MCF7; format: cell-based
# Procedure: as §1
# MCF7 cells [5] = test: Annexin V/PI apoptosis assay, MCF7; format: cell-based; conditions: MCF7, IC50 concentration, 24 h
# HCT-116 cells [6] = test: Cell cycle analysis (PI flow cytometry), HCT-116; format: cell-based; conditions: HCT-116, compound at its IC50
# Procedure: as §1
# HCT-116 cells [7] = test: Annexin V/PI apoptosis assay, HCT-116; format: cell-based; conditions: HCT-116, IC50 concentration, 24 h
# T1 sequence (P50750 whole entry): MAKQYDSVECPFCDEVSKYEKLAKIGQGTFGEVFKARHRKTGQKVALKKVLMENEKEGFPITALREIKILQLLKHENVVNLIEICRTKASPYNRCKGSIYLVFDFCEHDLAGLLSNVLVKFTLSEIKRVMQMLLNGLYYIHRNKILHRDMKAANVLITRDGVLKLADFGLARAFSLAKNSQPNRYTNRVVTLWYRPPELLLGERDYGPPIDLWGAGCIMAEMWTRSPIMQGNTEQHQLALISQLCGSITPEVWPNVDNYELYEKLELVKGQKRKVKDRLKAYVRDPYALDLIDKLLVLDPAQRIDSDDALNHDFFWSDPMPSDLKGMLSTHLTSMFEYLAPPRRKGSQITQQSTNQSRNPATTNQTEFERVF
# T1 sequence (O60563 whole entry partner): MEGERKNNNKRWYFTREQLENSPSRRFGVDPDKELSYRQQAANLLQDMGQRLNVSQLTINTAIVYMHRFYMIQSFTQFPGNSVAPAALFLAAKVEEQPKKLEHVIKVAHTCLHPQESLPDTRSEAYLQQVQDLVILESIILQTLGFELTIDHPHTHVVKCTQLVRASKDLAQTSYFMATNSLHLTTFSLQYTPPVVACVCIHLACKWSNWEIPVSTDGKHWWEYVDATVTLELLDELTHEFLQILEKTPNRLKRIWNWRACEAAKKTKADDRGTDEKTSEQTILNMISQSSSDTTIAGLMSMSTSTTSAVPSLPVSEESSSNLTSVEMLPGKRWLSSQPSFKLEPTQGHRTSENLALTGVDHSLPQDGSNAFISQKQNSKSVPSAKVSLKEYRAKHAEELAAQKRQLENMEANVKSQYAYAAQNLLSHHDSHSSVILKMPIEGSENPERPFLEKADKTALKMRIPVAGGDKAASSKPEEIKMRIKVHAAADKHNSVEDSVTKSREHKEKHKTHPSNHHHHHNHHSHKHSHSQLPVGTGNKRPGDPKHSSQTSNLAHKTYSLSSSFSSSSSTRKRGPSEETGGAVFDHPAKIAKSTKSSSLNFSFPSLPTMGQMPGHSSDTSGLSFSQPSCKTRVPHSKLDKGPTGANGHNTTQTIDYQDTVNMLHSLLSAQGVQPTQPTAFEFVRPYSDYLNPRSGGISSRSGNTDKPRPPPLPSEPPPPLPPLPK
Structure (SMILES),melting point [°C],IC50 (Hela cancer cell line) [µM],IC50 (MCF7 cancer cell line) [µM],IC50 (HCT-116 cancer cell line) [µM],further results
"COc1ccc(-c2nn(-c3ccccc3)c3nccc(-c4ccccc4)c23)cc1 [Compound 9a, 3-(4-Methoxyphenyl)-1,4-diphenyl-1H-pyrazolo[3,4-b]pyridine]",161 to 163,2.59 ± 0.16,6.39 ± 0.46,15.3 ± 1.46,"Cell cycle Comment (Hela cells [1]; compound at its IC50): cell cycle arrest at the S phase; also recorded: cell growth arrest@ S; DNA Content %G2/M (Hela cells [1]; compound at its IC50, control 14.5): 11.36%; DNA Content %S (Hela cells [1]; compound at its IC50, control 24.11): 29.54%; DNA Content %G0-G1 (Hela cells [1]; compound at its IC50, control 61.39): 59.1%; cell accumulation at S phase relative to control (Hela cells [1]; control 24.11%): 1.23 fold; IC50 (CDK9): 0.262 ± 0.013 µM; IC50 [2]: 26.4 ± 3.23 µM; IC50 (CDK2): 1.63 ± 0.009 µM; Apoptosis Late (Hela cells [3]; control 0.12): 12.82%; Apoptosis Early (Hela cells [3]; control 0.49): 23.21%; Necrosis (Hela cells [3]; control 1.72): 6.16%; Apoptosis Total (Hela cells [3]; total equals early + late + necrosis, control 2.33, % printed in Figure 6 only): 42.19%"
"COc1ccc(-c2nn(-c3ccccc3)c3nccc(-c4ccc(C)cc4)c23)cc1 [Compound 9b, 3-(4-Methoxyphenyl)-1-phenyl-4-(p-tolyl)-1H-pyrazolo[3,4-b]pyridine]",186 to 188,14 ± 1.25,22.4 ± 3.18,18 ± 1.16,
"COc1ccc(-c2ccnc3c2c(-c2ccc(OC)cc2)nn3-c2ccccc2)cc1 [Compound 9c, 3,4-Bis(4-methoxyphenyl)-1-phenyl-1H-pyrazolo[3,4-b]pyridine]",198 to 200,26.6 ± 3.37,59 ± 5.52,43.2 ± 3.26,
"COc1ccc(-c2nn(-c3ccccc3)c3nccc(-c4ccc(F)cc4)c23)cc1 [Compound 9d, 4-(4-Fluorophenyl)-3-(4-methoxyphenyl)-1-phenyl-1H-pyrazolo[3,4-b]pyridine]",171 to 173,19.6 ± 1.68,13 ± 1.33,17.5 ± 0.98,
"COc1ccc(-c2nn(-c3ccccc3)c3nccc(-c4ccc(Cl)cc4)c23)cc1 [Compound 9e, 4-(4-Chlorophenyl)-3-(4-methoxyphenyl)-1-phenyl-1H-pyrazolo[3,4-b]pyridine]",210 to 212,48.5 ± 4.2,20.3 ± 3.21,16.6 ± 1.34,
"COc1ccc(-c2nn(-c3ccccc3)c3nccc(-c4ccc(Br)cc4)c23)cc1 [Compound 9f, 4-(4-Bromophenyl)-3-(4-methoxyphenyl)-1-phenyl-1H-pyrazolo[3,4-b]pyridine]",217 to 219,20.4 ± 1.74,35.6 ± 4.64,16.8 ± 0.76,
"COc1ccc(-c2nn(-c3ccccc3)c3nccc(-c4ccc([N+](=O)[O-])cc4)c23)cc1 [Compound 9g, 3-(4-Methoxyphenyl)-4-(4-nitrophenyl)-1-phenyl-1H-pyrazolo[3,4-b]pyridine]",> 300,28.3 ± 4.23,26.3 ± 2.85,40 ± 3.19,
"COc1ccc(-c2nn(-c3ccccc3)c3nccc(-c4ccc(OC)c(OC)c4)c23)cc1 [Compound 9h, 4-(3,4-Dimethoxyphenyl)-3-(4-methoxyphenyl)-1-phenyl-1H-pyrazolo[3,4-b]pyridine]",165 to 167,7.92 ± 1.11,9.7 ± 1,9.69 ± 0.56,
"COc1ccc(-c2nn(-c3ccccc3)c3nc(-c4ccccc4)c(C#N)c(-c4ccccc4)c23)cc1 [Compound 14a, 3-(4-Methoxyphenyl)-1,4,6-triphenyl-1H-pyrazolo[3,4-b]pyridine-5-carbonitrile]",229 to 231,23.1 ± 1.63,20.7 ± 1.73,25.8 ± 2.58,
"COc1ccc(-c2nn(-c3ccccc3)c3nc(-c4ccccc4)c(C#N)c(-c4ccc(C)cc4)c23)cc1 [Compound 14b, 3-(4-Methoxyphenyl)-1,6-diphenyl-4-(p-tolyl)-1H-pyrazolo[3,4-b]pyridine-5-carbonitrile]",203 to 205,21 ± 2.18,21.4 ± 2.05,36.3 ± 1.83,
"COc1ccc(-c2nn(-c3ccccc3)c3nc(-c4ccccc4)c(C#N)c(-c4ccc(OC)cc4)c23)cc1 [Compound 14c, 3,4-Bis(4-methoxyphenyl)-1,6-diphenyl-1H-pyrazolo[3,4-b]pyridine-5-carbonitrile]",207 to 209,41.3 ± 2.79,39.3 ± 3.74,36.7 ± 2.02,
"COc1cccc2c1C(=O)c1c(O)c3c(c(O)c1C2=O)C[C@@](O)(C(=O)CO)C[C@@H]3O[C@H]1C[C@H](N)[C@H](O)[C@H](C)O1 [Doxorubicin, reference compound]",,2.35 ± 0.08,4.57 ± 0.28,2.11 ± 0.2,IC50 [2]: 15.6 ± 0.37 µM

# Further lines, with some results ahead:
melting point [°C],Structure (SMILES),IC50 (Hela cancer cell line) [µM],IC50 (MCF7 cancer cell line) [µM],IC50 (HCT-116 cancer cell line) [µM],further results
258 to 260,"COc1ccc(-c2nn(-c3ccccc3)c3nc(-c4ccccc4)c(C#N)c(-c4ccc(Cl)cc4)c23)cc1 [Compound 14d, 4-(4-Chlorophenyl)-3-(4-methoxyphenyl)-1,6-diphenyl-1H-pyrazolo[3,4-b]pyridine-5-carbonitrile]",21.1 ± 2.03,37.2 ± 2.48,31.1 ± 3.54,
221 to 223,"COc1ccc(-c2nn(-c3ccccc3)c3nc(-c4ccccc4)c(C#N)c(-c4ccc(Br)cc4)c23)cc1 [Compound 14e, 4-(4-Bromophenyl)-3-(4-methoxyphenyl)-1,6-diphenyl-1H-pyrazolo[3,4-b]pyridine-5-carbonitrile]",37.3 ± 3.32,34.4 ± 2.59,37.8 ± 2.63,
230 to 232,"COc1ccc(-c2nn(-c3ccccc3)c3nc(-c4ccccc4)c(C#N)c(-c4ccc(N(C)C)cc4)c23)cc1 [Compound 14f, 4-(4-(Dimethylamino)phenyl)-3-(4-methoxyphenyl)-1,6-diphenyl-1H-pyrazolo[3,4-b]pyridine-5-carbonitrile]",46.1 ± 3.7,19.6 ± 1.26,40 ± 4.32,
295 to 297,"COc1ccc(-c2nn(-c3ccccc3)c3nc(-c4ccccc4)c(C#N)c(-c4ccc(O)cc4)c23)cc1 [Compound 14g, 4-(4-Hydroxyphenyl)-3-(4-methoxyphenyl)-1,6-diphenyl-1H-pyrazolo[3,4-b]pyridine-5-carbonitrile]",12.7 ± 1.53,4.66 ± 0.38,1.98 ± 0.17,"Cell cycle Comment (MCF7 cells [4]; MCF7, compound at its IC50): arresting cell cycle for MCF7 at G2/M phase; also recorded: cell growth arrest@ G2/M; DNA Content %G2/M (MCF7 cells [4]; MCF7, compound at its IC50, control 14.86): 24.94%; DNA Content %S (MCF7 cells [4]; MCF7, compound at its IC50, control 39.02): 33.81%; DNA Content %G0-G1 (MCF7 cells [4]; MCF7, compound at its IC50, control 46.12): 41.25%; DNA accumulation at G2/M phase relative to control (MCF7 cells [4]; MCF7, control 14.86%): 1.68 fold; Apoptosis Late (MCF7 cells [5]; control 0.27): 7.55%; Apoptosis Early (MCF7 cells [5]; control 0.44): 13.07%; Necrosis (MCF7 cells [5]; control 0.78): 2.27%; Apoptosis Total (MCF7 cells [5]; total equals early + late + necrosis, control 1.49): 22.89%; IC50 (CDK9): 0.801 ± 0.041 µM; IC50 [2]: 21.8 ± 2.96 µM; IC50 (CDK2): 0.46 ± 0.024 µM; Cell cycle Comment (HCT-116 cells [6]): arresting cell cycle at S phase; also recorded: cell growth arrest@ S; DNA Content %G2/M (HCT-116 cells [6]; control 17.64): 13.24%; DNA Content %S (HCT-116 cells [6]; control 26.49): 34.82%; DNA Content %G0-G1 (HCT-116 cells [6]; control 55.87): 51.94%; Apoptosis Late (HCT-116 cells [7]; control 0.19): 6.95%; Apoptosis Early (HCT-116 cells [7]; control 0.63): 16.01%; Necrosis (HCT-116 cells [7]; control 1.69): 3.75%; Apoptosis Total (HCT-116 cells [7]; total equals early + late + necrosis, control 2.51): 26.71%"
212 to 214,"COc1ccc(-c2nn(-c3ccccc3)c3nc(-c4ccccc4)c(C#N)c(-c4ccc(OC)c(OC)c4)c23)cc1 [Compound 14h, 4-(3,4-Dimethoxyphenyl)-3-(4-methoxyphenyl)-1,6-diphenyl-1H-pyrazolo[3,4-b]pyridine-5-carbonitrile]",31.7 ± 2.48,38.1 ± 2.76,3.69 ± 0.11,
